For this assay, the target named is T1, human amylin receptors (Homo sapiens, UniProt O60896+P30988).
T1 construct: host or cells: CHO-K1/Ga15/AMY3 cells, further stably transfected with a CRE-luciferase plasmid
T1 sequence (P30988 25-474): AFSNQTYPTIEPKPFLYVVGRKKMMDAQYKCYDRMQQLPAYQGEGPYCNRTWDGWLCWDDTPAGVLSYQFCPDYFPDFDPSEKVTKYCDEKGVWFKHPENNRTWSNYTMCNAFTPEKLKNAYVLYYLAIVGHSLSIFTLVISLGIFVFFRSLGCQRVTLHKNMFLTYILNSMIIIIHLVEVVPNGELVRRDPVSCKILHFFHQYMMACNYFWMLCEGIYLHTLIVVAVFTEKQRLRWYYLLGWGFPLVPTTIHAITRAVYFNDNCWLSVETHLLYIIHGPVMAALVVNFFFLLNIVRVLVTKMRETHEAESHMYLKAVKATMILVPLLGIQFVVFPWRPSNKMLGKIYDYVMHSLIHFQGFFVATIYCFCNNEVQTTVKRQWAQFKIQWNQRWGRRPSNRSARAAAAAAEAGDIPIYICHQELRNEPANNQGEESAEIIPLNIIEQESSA
T1 sequence (O60896 24-148 partner): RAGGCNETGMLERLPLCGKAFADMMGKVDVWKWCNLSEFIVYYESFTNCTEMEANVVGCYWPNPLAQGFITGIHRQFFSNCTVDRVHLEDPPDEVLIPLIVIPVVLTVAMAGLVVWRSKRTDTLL
Nature of the assay: Luciferase assay in stably transfected amylin receptor/CRE-luc CHO cell line. The note with it: for Relative activity: EC50 ratio of Cagrilintide to the compound, Cagrilintide 100%; for EC50: amylin receptor/CRE-luc CHO cells, 24 hours incubation, luminescence. It counts as cell-based. The text has this: The objective of this assay is to test the potency of derivatives of polypeptides of the present application on human amylin receptors in vitro using a luciferase assay. Using the standard protocol, CHO-K1/Ga15/AMY3 cells (purchased from GenScript, with the calcitonin receptor and the receptor activity modifying peptide (RAMP) constructed already) were transfected with a plasmid containing a luciferase expression cassette driven by multiple copies of cAMP response elements (CREs). The cells were cultured in an F12 medium containing 200 μg/mL Zeocin, 2 μg/mL puromycin, 100 μg/mL hygromycin, and 400 μg/mL G418 to afford a stably transfected amylin receptor/CRE-luc cell line. The lyophilized powder from Example 1 was dissolved in 20 mM phosphate buffer solution with a pH of 7.0, and diluted in a growth medium (F12 culture medium containing 10% FBS) to give a derivative sample with an initial concentration of 10 nM, which was then subjected to a 5-fold serial dilution in the growth medium to obtain seven samples with concentrations between […]. In each well of a white 96-well plate, 50 μL of the tested sample solution was added with a corresponding concentration. The stably transfected amylin receptor/CRE-luc CHO cells were resuspended in the growth medium at a certain density, and 50 μL of the cell suspension was added at a density of about 20000 cells per well to the white 96-well plate containing the tested sample solution. After incubation of 24 hours at 37° C. and 5% CO2, 100 μL of a Luciferase substrate was added to each well, incubated for 3 minutes, and finally was tested for luminescence on SpectraMax L (Molecular Devices) with the software SoftMax Pro 7.0.3 GxP.

Structures are written as SMILES. Starred links: 1 amine or outer side, 2 acyl side, 3 side chain; linkers in the order of their positions; H or OH if unused. Non-standard residues stand in square brackets, D forms with d. Residues, ends and D or L forms follow the SMILES beside them. ξ: configuration not given here. *: point of attachment. C20 diacid = O=C(O)CCCCCCCCCCCCCCCCCCC(=O)*; C16 diacid = O=C(O)CCCCCCCCCCCCCCC(=O)*; γGlu = O=C(O)[C@H](CCC(=O)[*:2])N[*:1]; βAsp = O=C(O)[C@H](CC(=O)[*:2])N[*:1]; Hyp = O=C(O)[C@@H]1C[C@@H](O)CN1; ξαMeN = CC(N)(CC(N)=O)C(=O)O; AEEA = NCCOCCOCC(=O)O; Inp = O=C(O)C1CCNCC1

As usually defined, the EC50 is the midpoint of the concentration-response curve. Higher therefore signals a less potent agent. As to `CC[C@H](C)[C@H](NC(=O)[C@@H]1CCCN1C(=O)[C@H](CCCCN)NC(=O)[C@H](CC(C)C)NC(=O)[C@H](CC(N)=O)NC(=O)[C@H](CC(N)=O)NC(=O)[C@H](CO)NC(=O)[C@H](CO)NC(=O)[C@H](Cc1c[nH]cn1)NC(=O)[C@H](CCCNC(=N)N)NC(=O)[C@H](CC(C)C)NC(=O)[C@H](Cc1ccccc1)NC(=O)[C@H](CC(=O)O)NC(=O)[C@H](C)NC(=O)[C@H](CC(C)C)NC(=O)[C@H](CCCNC(=N)N)NC(=O)[C@H](CCC(N)=O)NC(=O)[C@@H](NC(=O)[C@H](C)NC(=O)[C@H](C)NC(=O)[C@@H](NC(=O)[C@H](CO)NC(=O)[C@H](CC(C)C)NC(=O)[C@H](CCC(N)=O)NC(=O)[C@H](CO)NC(=O)[C@H](C)NC(=O)CC[C@H](NC(=O)CCCCCCCCCCCCCCC(=O)O)C(=O)O)[C@@H](C)O)[C@@H](C)O)C(=O)N[C@@H](CC(C)C)C(=O)N1CCC[C@H]1C(=O)N1CCC[C@H]1C(=O)N[C@H](C(=O)N[C@@H](CC(N)=O)C(=O)N[C@H](C(=O)NCC(=O)N[C@@H](CO)C(=O)N[C@@H](CC(N)=O)C(=O)N[C@H](C(=O)N1C[C@H](O)C[C@H]1C(N)=O)[C@@H](C)O)C(C)C)[C@@H](C)O` [M38] ({C16 diacid-γGlu}-ASQLSTAATQRLADFLRHSSNNLKPILPPTNVGSNT[Hyp]-NH2), the Relative activity is 181% and it took 0.03 nM to reach a half-maximal effect (EC50).
In the case of `CC[C@H](C)[C@H](NC(=O)[C@@H]1CCCN1C(=O)[C@H](CCCCN)NC(=O)[C@H](CC(C)C)NC(=O)[C@H](CC(N)=O)NC(=O)[C@H](CC(N)=O)NC(=O)[C@H](CO)NC(=O)[C@H](CO)NC(=O)[C@H](Cc1c[nH]cn1)NC(=O)[C@H](CCCNC(=N)N)NC(=O)[C@H](CC(C)C)NC(=O)[C@H](Cc1ccccc1)NC(=O)[C@H](CC(=O)O)NC(=O)[C@H](C)NC(=O)[C@H](CC(C)C)NC(=O)[C@H](CCCNC(=N)N)NC(=O)[C@H](CCC(N)=O)NC(=O)[C@@H](NC(=O)[C@H](C)NC(=O)[C@H](C)NC(=O)[C@@H](NC(=O)[C@H](CO)NC(=O)[C@H](CC(C)C)NC(=O)[C@H](CCC(N)=O)NC(=O)[C@H](CO)NC(=O)[C@H](C)NC(=O)COCCOCCNC(=O)COCCOCCNC(=O)C[C@H](NC(=O)CCCCCCCCCCCCCCCCCCC(=O)O)C(=O)O)[C@@H](C)O)[C@@H](C)O)C(=O)N[C@@H](CC(C)C)C(=O)N1CCC[C@H]1C(=O)N1CCC[C@H]1C(=O)N[C@H](C(=O)N[C@@H](CC(N)=O)C(=O)N[C@H](C(=O)NCC(=O)N[C@@H](CO)C(=O)N[C@@H](CC(N)=O)C(=O)N[C@H](C(=O)N1C[C@H](O)C[C@H]1C(N)=O)[C@@H](C)O)C(C)C)[C@@H](C)O` [M33] ({C20 diacid-βAsp-AEEA-AEEA}-ASQLSTAATQRLADFLRHSSNNLKPILPPTNVGSNT[Hyp]-NH2), the Relative activity worked out at 37% and the EC50 amounted to 0.145 nM.
The corresponding values for `CC[C@H](C)[C@H](NC(=O)[C@H](CC(=O)O)NC(=O)[C@H](CCCNC(=N)N)NC(=O)[C@H](CC(=O)O)NC(=O)[C@H](CCCNC(=N)N)NC(=O)[C@H](CC(=O)O)NC(=O)[C@@H](NC(=O)[C@H](Cc1ccccc1)NC(=O)[C@H](Cc1c[nH]cn1)NC(=O)[C@H](CCCNC(=N)N)NC(=O)[C@H](CC(C)C)NC(=O)[C@H](Cc1ccccc1)NC(=O)[C@H](CC(=O)O)NC(=O)[C@H](C)NC(=O)[C@H](CC(C)C)NC(=O)[C@H](CCCNC(=N)N)NC(=O)[C@H](CCC(N)=O)NC(=O)[C@@H](NC(=O)[C@H](C)NC(=O)[C@H](C)NC(=O)[C@@H](NC(=O)[C@H](CO)NC(=O)[C@H](CC(C)C)NC(=O)[C@H](CCC(N)=O)NC(=O)[C@H](CO)NC(=O)[C@H](C)NC(=O)[C@H](CCC(=O)O)NC(=O)CCCCCCCCCCCCCCCCCCC(=O)O)[C@@H](C)O)[C@@H](C)O)[C@@H](C)O)C(=O)N[C@@H](CC(C)C)C(=O)N1CCC[C@H]1C(=O)N1CCC[C@H]1C(=O)N[C@H](C(=O)N[C@@H](CC(N)=O)C(=O)N[C@H](C(=O)NCC(=O)N[C@@H](CO)C(=O)N[C@@H](CC(N)=O)C(=O)N[C@H](C(=O)N1CCC[C@H]1C(N)=O)[C@@H](C)O)C(C)C)[C@@H](C)O` [M11] ({C20 diacid}-EASQLSTAATQRLADFLRHFTDRDRDILPPTNVGSNTP-NH2) are 110% and 0.004 nM.
Take `CC[C@H](C)[C@H](NC(=O)[C@@H]1CCCN1C(=O)[C@H](CCCCN)NC(=O)[C@H](CC(C)C)NC(=O)C(C)(CC(N)=O)NC(=O)[C@H](CC(N)=O)NC(=O)[C@H](CO)NC(=O)[C@H](CO)NC(=O)[C@H](Cc1c[nH]cn1)NC(=O)[C@H](CCCNC(=N)N)NC(=O)[C@H](CC(C)C)NC(=O)[C@H](Cc1ccccc1)NC(=O)[C@H](CC(=O)O)NC(=O)[C@H](C)NC(=O)[C@H](CC(C)C)NC(=O)[C@H](CCCNC(=N)N)NC(=O)[C@H](CCC(N)=O)NC(=O)[C@@H](NC(=O)[C@H](C)NC(=O)[C@H](C)NC(=O)[C@@H](NC(=O)[C@H](CO)NC(=O)[C@H](CC(C)C)NC(=O)[C@H](CCC(N)=O)NC(=O)[C@H](CO)NC(=O)[C@H](C)NC(=O)CC[C@H](NC(=O)CCCCCCCCCCCCCCCCCCC(=O)O)C(=O)O)[C@@H](C)O)[C@@H](C)O)C(=O)N[C@@H](CC(C)C)C(=O)N1CCC[C@H]1C(=O)N1CCC[C@H]1C(=O)N[C@H](C(=O)N[C@@H](CC(N)=O)C(=O)N[C@H](C(=O)NCC(=O)N[C@@H](CO)C(=O)N[C@@H](CC(N)=O)C(=O)N[C@H](C(=O)N1C[C@H](O)C[C@H]1C(N)=O)[C@@H](C)O)C(C)C)[C@@H](C)O` (some centres unmarked) [M55] ({C20 diacid-γGlu}-ASQLSTAATQRLADFLRHSSN[ξαMeN]LKPILPPTNVGSNT[Hyp]-NH2): the Relative activity is 233%.
As for `CC[C@H](C)[C@H](NC(=O)[C@H](CC(=O)O)NC(=O)[C@H](CCCNC(=N)N)NC(=O)[C@H](CC(=O)O)NC(=O)[C@H](CCCNC(=N)N)NC(=O)[C@H](CC(=O)O)NC(=O)[C@@H](NC(=O)[C@H](Cc1ccccc1)NC(=O)[C@H](Cc1c[nH]cn1)NC(=O)[C@H](CCCNC(=N)N)NC(=O)[C@H](CC(C)C)NC(=O)[C@H](Cc1ccccc1)NC(=O)[C@H](CC(=O)O)NC(=O)[C@H](C)NC(=O)[C@H](CC(C)C)NC(=O)[C@H](CCCNC(=N)N)NC(=O)[C@H](CCC(N)=O)NC(=O)[C@@H](NC(=O)[C@H](C)NC(=O)[C@H](C)NC(=O)[C@@H](NC(=O)[C@H](CO)NC(=O)[C@H](CC(C)C)NC(=O)[C@H](CCC(N)=O)NC(=O)[C@H](CO)NC(=O)[C@H](C)NC(=O)COCCOCCNC(=O)COCCOCCNC(=O)[C@H](CCC(=O)O)NC(=O)CCCCCCCCCCCCCCCCCCC(=O)O)[C@@H](C)O)[C@@H](C)O)[C@@H](C)O)C(=O)N[C@@H](CC(C)C)C(=O)N1CCC[C@H]1C(=O)N1CCC[C@H]1C(=O)N[C@H](C(=O)N[C@@H](CC(N)=O)C(=O)N[C@H](C(=O)NCC(=O)N[C@@H](CO)C(=O)N[C@@H](CC(N)=O)C(=O)N[C@H](C(=O)N1CCC[C@H]1C(N)=O)[C@@H](C)O)C(C)C)[C@@H](C)O` [M17] ({C20 diacid}-E[AEEA][AEEA]ASQLSTAATQRLADFLRHFTDRDRDILPPTNVGSNTP-NH2), the Relative activity amounted to 94% and the EC50 was 0.026 nM.
The corresponding values for `CC[C@H](C)[C@H](NC(=O)[C@H](CC(=O)O)NC(=O)[C@H](CCCNC(=N)N)NC(=O)[C@H](CC(=O)O)NC(=O)[C@H](CCCNC(=N)N)NC(=O)[C@H](CC(=O)O)NC(=O)[C@@H](NC(=O)[C@H](Cc1ccccc1)NC(=O)[C@H](Cc1c[nH]cn1)NC(=O)[C@H](CCCNC(=N)N)NC(=O)[C@H](CC(C)C)NC(=O)[C@H](Cc1ccccc1)NC(=O)[C@H](CC(=O)O)NC(=O)[C@H](C)NC(=O)[C@H](CC(C)C)NC(=O)[C@H](CCCNC(=N)N)NC(=O)[C@H](CCC(N)=O)NC(=O)[C@@H](NC(=O)[C@H](C)NC(=O)[C@H](C)NC(=O)[C@@H](NC(=O)[C@H](CO)NC(=O)[C@H](CC(C)C)NC(=O)[C@H](CCC(N)=O)NC(=O)[C@H](CO)NC(=O)[C@H](C)NC(=O)C1CCN(C(=O)CCCCCCCCCCCCCCCCCCC(=O)O)CC1)[C@@H](C)O)[C@@H](C)O)[C@@H](C)O)C(=O)N[C@@H](CC(C)C)C(=O)N1CCC[C@H]1C(=O)N1CCC[C@H]1C(=O)N[C@H](C(=O)N[C@@H](CC(N)=O)C(=O)N[C@H](C(=O)NCC(=O)N[C@@H](CO)C(=O)N[C@@H](CC(N)=O)C(=O)N[C@H](C(=O)N1CCC[C@H]1C(N)=O)[C@@H](C)O)C(C)C)[C@@H](C)O` [M15] ({C20 diacid-Inp}-ASQLSTAATQRLADFLRHFTDRDRDILPPTNVGSNTP-NH2) are 81% and 0.03 nM.

The record behind these values is patent US20260265329A1, “POLYPEPTIDE AND DERIVATIVE THEREOF, COMPOSITION, AND USE THEREOF” (HANGZHOU SCIWIND BIOSCIENCES CO., LTD., priority 2023, published 2026).
